Data as given in US20090298820A1, “3-SUBSTITUTED-1H-PYRROLO[2,3-B]PYRIDINE AND 3-SUBSTITUTED-1H-PYRROLO[3,2-B]PYRIDINE COMPOUNDS, THEIR USE AS MTOR KINASE AND PI3 KINASE INHIBITORS, AND THEIR SYNTHESES” (Wyeth, priority 2008, published 2009).

What was measured:
Assay type in all cases: biochemical
PI3Kα = PI3Kα (Homo sapiens, UniProt P42336); assay: PI3K-alpha fluorescence polarization assay; conditions: read-out: PI3Kα Median IC50
PI3Kγ = PI3Kγ (Homo sapiens, UniProt P48736); assay: PI3K-gamma fluorescence polarization assay; conditions: read-out: PI3Kγ Median IC50
Sequence of PI3Kγ (P48736 whole entry, species assumed): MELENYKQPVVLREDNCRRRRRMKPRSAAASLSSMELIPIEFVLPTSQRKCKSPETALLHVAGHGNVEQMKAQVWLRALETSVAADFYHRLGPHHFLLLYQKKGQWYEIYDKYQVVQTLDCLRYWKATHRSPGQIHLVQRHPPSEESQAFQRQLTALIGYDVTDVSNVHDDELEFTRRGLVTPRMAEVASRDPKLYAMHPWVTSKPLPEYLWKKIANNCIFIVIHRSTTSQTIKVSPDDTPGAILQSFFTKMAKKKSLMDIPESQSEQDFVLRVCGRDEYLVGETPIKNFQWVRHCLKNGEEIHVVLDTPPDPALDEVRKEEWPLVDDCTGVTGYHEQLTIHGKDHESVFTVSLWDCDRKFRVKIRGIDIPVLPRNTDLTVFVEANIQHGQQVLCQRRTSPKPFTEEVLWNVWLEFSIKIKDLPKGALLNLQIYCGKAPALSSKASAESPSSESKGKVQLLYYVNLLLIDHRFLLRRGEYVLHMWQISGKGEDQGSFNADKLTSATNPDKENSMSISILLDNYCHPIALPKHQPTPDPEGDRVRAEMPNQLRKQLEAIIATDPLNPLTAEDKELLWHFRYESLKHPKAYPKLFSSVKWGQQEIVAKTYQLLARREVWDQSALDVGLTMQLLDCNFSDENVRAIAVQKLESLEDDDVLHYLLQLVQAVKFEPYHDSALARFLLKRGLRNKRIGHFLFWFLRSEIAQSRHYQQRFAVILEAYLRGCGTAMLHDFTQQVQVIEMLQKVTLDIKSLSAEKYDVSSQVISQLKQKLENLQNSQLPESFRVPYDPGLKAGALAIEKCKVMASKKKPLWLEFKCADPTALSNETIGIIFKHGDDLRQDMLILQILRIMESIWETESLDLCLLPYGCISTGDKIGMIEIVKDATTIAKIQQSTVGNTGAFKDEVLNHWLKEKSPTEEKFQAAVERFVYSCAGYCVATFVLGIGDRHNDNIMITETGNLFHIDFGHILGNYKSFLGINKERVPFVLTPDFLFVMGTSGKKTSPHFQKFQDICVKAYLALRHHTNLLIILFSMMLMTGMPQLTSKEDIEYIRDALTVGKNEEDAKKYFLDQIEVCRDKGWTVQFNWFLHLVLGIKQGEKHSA

mTOR = mTOR (Homo sapiens, UniProt P42345); assay: mTOR enzyme assay (DELFIA format, His6-S6K substrate); conditions: read-out: mTOR Kinase Median IC50

Sequence of PI3Kα (P42336 whole entry, species assumed): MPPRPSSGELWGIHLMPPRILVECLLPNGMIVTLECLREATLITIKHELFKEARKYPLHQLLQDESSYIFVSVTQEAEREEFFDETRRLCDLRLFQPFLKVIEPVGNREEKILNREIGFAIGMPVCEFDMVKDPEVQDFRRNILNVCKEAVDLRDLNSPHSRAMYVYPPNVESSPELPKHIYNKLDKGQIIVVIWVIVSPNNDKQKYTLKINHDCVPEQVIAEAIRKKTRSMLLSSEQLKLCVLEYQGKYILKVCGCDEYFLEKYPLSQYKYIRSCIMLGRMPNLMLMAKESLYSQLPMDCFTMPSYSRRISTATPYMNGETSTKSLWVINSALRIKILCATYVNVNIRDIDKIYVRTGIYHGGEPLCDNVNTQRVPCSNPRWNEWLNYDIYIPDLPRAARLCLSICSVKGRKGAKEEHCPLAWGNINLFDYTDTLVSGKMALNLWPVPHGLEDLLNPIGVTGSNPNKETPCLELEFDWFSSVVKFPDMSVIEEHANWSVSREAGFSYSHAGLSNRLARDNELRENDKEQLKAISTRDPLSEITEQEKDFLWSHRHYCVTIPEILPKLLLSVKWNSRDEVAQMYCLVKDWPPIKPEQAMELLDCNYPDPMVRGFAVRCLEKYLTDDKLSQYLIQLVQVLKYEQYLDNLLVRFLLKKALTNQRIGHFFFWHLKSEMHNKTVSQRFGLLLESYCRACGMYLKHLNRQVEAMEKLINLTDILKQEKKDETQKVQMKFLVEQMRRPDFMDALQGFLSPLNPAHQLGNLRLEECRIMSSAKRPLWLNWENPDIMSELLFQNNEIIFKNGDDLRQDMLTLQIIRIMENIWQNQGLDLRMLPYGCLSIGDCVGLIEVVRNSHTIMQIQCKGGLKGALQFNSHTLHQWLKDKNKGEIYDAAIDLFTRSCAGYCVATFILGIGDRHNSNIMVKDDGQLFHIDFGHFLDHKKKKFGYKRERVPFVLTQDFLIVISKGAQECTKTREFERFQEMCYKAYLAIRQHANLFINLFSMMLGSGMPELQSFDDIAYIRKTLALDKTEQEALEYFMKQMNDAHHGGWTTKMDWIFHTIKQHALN
Sequence of PI3Kα (P27986 whole entry partner, species assumed): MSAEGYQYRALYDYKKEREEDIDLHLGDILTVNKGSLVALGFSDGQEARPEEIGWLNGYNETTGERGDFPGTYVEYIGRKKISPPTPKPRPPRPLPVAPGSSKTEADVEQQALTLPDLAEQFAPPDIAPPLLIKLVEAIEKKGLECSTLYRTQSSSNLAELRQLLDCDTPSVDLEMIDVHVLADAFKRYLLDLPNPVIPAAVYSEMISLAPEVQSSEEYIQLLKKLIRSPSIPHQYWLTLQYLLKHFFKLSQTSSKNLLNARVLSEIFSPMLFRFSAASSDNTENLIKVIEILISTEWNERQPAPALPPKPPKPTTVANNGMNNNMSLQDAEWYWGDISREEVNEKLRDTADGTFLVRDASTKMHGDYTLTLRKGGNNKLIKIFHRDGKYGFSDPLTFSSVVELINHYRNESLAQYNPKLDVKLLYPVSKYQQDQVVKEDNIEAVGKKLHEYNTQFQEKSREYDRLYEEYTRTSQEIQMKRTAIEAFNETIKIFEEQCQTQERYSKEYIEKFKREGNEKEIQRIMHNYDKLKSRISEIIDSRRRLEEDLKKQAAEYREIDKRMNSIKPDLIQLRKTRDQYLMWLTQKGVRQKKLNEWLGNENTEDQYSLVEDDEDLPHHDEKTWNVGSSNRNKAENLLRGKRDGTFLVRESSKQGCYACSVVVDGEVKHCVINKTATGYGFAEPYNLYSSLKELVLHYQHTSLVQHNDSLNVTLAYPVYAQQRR

Molecule | IC50 (PI3Kα) | IC50 (PI3Kγ) | IC50 (mTOR)
CN1CCN(NC(=O)Nc2ccc3c(c2)C(=O)/C(=C/c2cn(C)c4nccc(N5CC6CCC(C5)O6)c24)O3)CC1 [Compound 221, 1-[(2Z)-2-{[1-methyl-4-(8-oxa-3-azabicyclo[3.2.1]oct-3-yl)-1H-pyrrolo[2,3-b]pyridin-3-yl]methylidene}-3-oxo-2,3-dihydro-1-benzofuran-5-yl]-3-(4-methylpiperazin-1-yl)urea] | 221 nM | 1010 nM | 175 nM
CN(C(=O)C1CCN(c2ccnc3c2c(/C=C2\Oc4ccc(NC(=O)Nc5cccnc5)cc4C2=O)cn3C)CC1)C1CCCC1 [Compound 227, N-cyclopentyl-N-methyl-1-{1-methyl-3-[(Z)-{3-oxo-5-[(pyridin-3-ylcarbamoyl)amino]-1-benzofuran-2(3H)-ylidene}methyl]-1H-pyrrolo[2,3-b]pyridin-4-yl}piperidine-4-carboxamide] | 2720 nM | 1110 nM | 165 nM
Cn1cc(/C=C2\Oc3ccc(NC(=O)NC4CCN(C(=O)C(F)(F)F)CC4)cc3C2=O)c2c(N3CC4CCC(C3)O4)ccnc21 [Compound 286, 1-[(2Z)-2-{[1-methyl-4-(8-oxa-3-azabicyclo[3.2.1]oct-3-yl)-1H-pyrrolo[2,3-b]pyridin-3-yl]methylidene}-3-oxo-2,3-dihydro-1-benzofuran-5-yl]-3-[1-(trifluoroacetyl)piperidin-4-yl]urea] | 354 nM | 1720 nM | 108 nM
CN(C)CCOc1ccc(NC(=O)Nc2ccc3c(c2)C(=O)/C(=C/c2cn(C)c4nccc(N5CCC(C(=O)N(C)C)CC5)c24)O3)cc1 [Compound 274, 1-{3-[(Z)-{5-[({4-[2-(dimethylamino)ethoxy]phenyl}carbamoyl)amino]-3-oxo-1-benzofuran-2(3H)-ylidene}methyl]-1-methyl-1H-pyrrolo[2,3-b]pyridin-4-yl}-N,N-dimethylpiperidine-4-carboxamide] | 778 nM | 934 nM | 21 nM
CCNC(=O)Nc1ccc2c(c1)C(=O)/C(=C/c1cn(C)c3nccc(N4CC5CCC(C4)O5)c13)O2 [Compound 61, 1-ethyl-3-[(2Z)-2-{[1-methyl-4-(8-oxa-3-azabicyclo[3.2.1]oct-3-yl)-1H-pyrrolo[2,3-b]pyridin-3-yl]methylene}-3-oxo-2,3-dihydro-1-benzofuran-5-yl]Urea] | 311 nM | 668 nM | 57 nM
Cn1cc(C=C2Oc3ccc(NC(=O)Nc4cccnc4)cc3C2=O)c2c(N3CCC(C(=O)NCCN4CCCC4)CC3)ccnc21 [Compound 203, 1-[1-methyl-3-({3-oxo-5-[(pyridin-3-ylcarbamoyl)amino]-1-benzofuran-2(3H)-ylidene}methyl)-1H-pyrrolo[2,3-b]pyridin-4-yl]-N-(2-pyrrolidin-1-ylethyl)piperidine-4-carboxamide] | > 10000 nM | > 10000 nM | 19 nM
CN1CCN(c2ccc(NC(=O)Nc3ccc4c(c3)C(=O)/C(=C/c3cn(C)c5nccc(N6CC7CCC(C6)O7)c35)O4)cc2)CC1 [Compound 229, 1-[(2Z)-2-{[1-methyl-4-(8-oxa-3-azabicyclo[3.2.1]oct-3-yl)-1H-pyrrolo[2,3-b]pyridin-3-yl]methylidene}-3-oxo-2,3-dihydro-1-benzofuran-5-yl]-3-[4-(4-methylpiperazin-1-yl)phenyl]urea] | 2300 nM | 6670 nM | 280 nM
Cn1cc(/C=C2\Oc3ccc(NC(=O)Nc4cccnc4)cc3C2=O)c2c(N3CCC(C(=O)N4CCCCC4)CC3)ccnc21 [Compound 258, 1-[(2Z)-2-({1-methyl-4-[4-(piperidin-1-ylcarbonyl)piperidin-1-yl]-1H-pyrrolo[2,3-b]pyridin-3-yl}methylene)-3-oxo-2,3-dihydro-1-benzofuran-5-yl]-3-pyridin-3-ylurea] | 604 nM | 206 nM | 47.5 nM
(2Z)-4-hydroxy-2-{[1-methyl-4-(1H-pyrrol-2-yl)-1H-pyrrolo[2,3-b]pyridin-3-yl]methylidene}-1-benzofuran-3(2H)-one [Compound 23] | 381 nM | 2090 nM | 50.5 nM
Cn1cc(/C=C2\Oc3ccc(NC(=O)Nc4cccnc4)cc3C2=O)c2c(N3CCC(C(=O)N4CC5CCC4CO5)CC3)ccnc21 (stereo not drawn) [Compound 233, 1-[(2Z)-2-({1-methyl-4-[4-(2-oxa-5-azabicyclo[2.2.2]oct-5-ylcarbonyl)piperidin-1-yl]-1H-pyrrolo[2,3-b]pyridin-3-yl}methylidene)-3-oxo-2,3-dihydro-1-benzofuran-5-yl]-3-pyridin-3-ylurea] | 196 nM | 1730 nM | 38 nM
CN1CCC(N(C)C(=O)C2CCN(c3ccnc4c3c(C=C3Oc5ccc(NC(=O)Nc6cccnc6)cc5C3=O)cn4C)CC2)C1 (stereo not drawn) [Compound 205, N-methyl-1-[1-methyl-3-({3-oxo-5-[(pyridin-3-ylcarbamoyl)amino]-1-benzofuran-2(3H)-ylidene}methyl)-1H-pyrrolo[2,3-b]pyridin-4-yl]-N-(1-methylpyrrolidin-3-yl)piperidine-4-carboxamide] | > 10000 nM | 9230 nM | 49 nM
Cn1cc(/C=C2\Oc3ccc(NC(=O)Nc4cccnc4)cc3C2=O)c2c(-c3ccc(C(=O)N4CCOCC4)cc3)ccnc21 [Compound 178, 1-[(2Z)-2-({1-methyl-4-[4-(morpholin-4-ylcarbonyl)phenyl]-1H-pyrrolo[2,3-b]pyridin-3-yl}methylidene)-3-oxo-2,3-dihydro-1-benzofuran-5-yl]-3-pyridin-3-ylurea] | 1120 nM | 652 nM | 54.5 nM

Other lines, results leading:

IC50 (PI3Kα) | IC50 (PI3Kγ) | IC50 (mTOR) | Molecule
43 nM | 156 nM | 16.5 nM | COc1ccc(-c2ccnc3c2c(/C=C2\Oc4cccc(O)c4C2=O)cn3C)cc1S(=O)(=O)N1CCCCC1 [Compound 123, (2Z)-4-hydroxy-2-({4-[4-methoxy-3-(piperidin-1-ylsulfonyl)phenyl]-1-methyl-1H-pyrrolo[2,3-b]pyridin-3-yl}methylene)-1-benzofuran-3(2H)-one]
141 nM | 1230 nM | 7.8 nM | Cn1cc(/C=C2\Oc3cccc(O)c3C2=O)c2c(-c3cccc(C(=O)Nc4ccccc4)c3)ccnc21 [Compound 138, 3-{3-[(Z)-(4-hydroxy-3-oxo-1-benzofuran-2(3H)-ylidene)methyl]-1-methyl-1H-pyrrolo[2,3-b]pyridin-4-yl}-N-phenylbenzamide]
28 nM | 79 nM | 1.6 nM | COc1ccc(-c2ccnc3c2c(/C=C2\Oc4cccc(O)c4C2=O)cn3C)cc1S(=O)(=O)N1CCOCC1 [Compound 81, (2Z)-4-hydroxy-2-({4-[4-methoxy-3-(morpholin-4-ylsulfonyl)phenyl]-1-methyl-1H-pyrrolo[2,3-b]pyridin-3-yl}methylene)-1-benzofuran-3(2H)-one]
2000 nM | 8740 nM | 66.5 nM | CCOC(=O)Nc1ccc2c(c1)C(=O)/C(=C/c1cn(C)c3nccc(N4CCC(C(=O)N(C)C)CC4)c13)O2 [Compound 171, ethyl[(2Z)-2-({4-[4-(dimethylcarbamoyl)piperidin-1-yl]-1-methyl-1H-pyrrolo[2,3-b]pyridin-3-yl}methylidene)-3-oxo-2,3-dihydro-1-benzofuran-5-yl]carbamate]
25 nM | 144 nM | 2.7 nM | Cn1cc(/C=C2\Oc3cccc(O)c3C2=O)c2c(N3CC4COC(C3)O4)ccnc21 (stereo not drawn) [Compound 165, (2Z)-2-{[4-(6,8-dioxa-3-azabicyclo[3.2.1]oct-3-yl)-1-methyl-1H-pyrrolo[2,3-b]pyridin-3-yl]methylidene}-4-hydroxy-1-benzofuran-3(2H)-one]
34 nM | 140 nM | 3.5 nM | Cn1cc(/C=C2\Oc3cccc(O)c3C2=O)c2c(-c3cccc(S(N)(=O)=O)c3)ccnc21 [Compound 21, 3-{3-[(Z)-(4-hydroxy-3-oxo-1-benzofuran-2(3H)-ylidene)methyl]-1-methyl-1H-pyrrolo[2,3-b]pyridin-4-yl}benzenesulfonamide]
123 nM | 1210 nM | 58 nM | Cn1cc(/C=C2\Oc3cccc(O)c3C2=O)c2c(-c3ccc(S(=O)(=O)N4CCCCC4)cc3)ccnc21 [Compound 181, (2Z)-4-hydroxy-2-({1-methyl-4-[4-(piperidin-1-ylsulfonyl)phenyl]-1H-pyrrolo[2,3-b]pyridin-3-yl}methylidene)-1-benzofuran-3(2H)-one]
3930 nM | > 10000 nM | > 20000 nM | COc1ccc2c(n1)c(C=C1Oc3cccc(O)c3C1=O)cn2C [Compound 5, 4-hydroxy-2-[(5-methoxy-1-methyl-1H-pyrrolo[3,2-b]pyridin-3-yl)methylene]-1-benzofuran-3(2H)-one]
12 nM | 131 nM | 0.3 nM | Cn1cc(/C=C2\Oc3cc(O)cc(O)c3C2=O)c2c(N3CCOCC3)ccnc21 [Compound 45, (2Z)-4,6-dihydroxy-2-[(1-methyl-4-morpholin-4-yl-1H-pyrrolo[2,3-b]pyridin-3-yl)methylene]-1-benzofuran-3(2H)-one]
6 nM | 44 nM | 0.2 nM | Cn1cc(/C=C2\Oc3cc(O)cc(O)c3C2=O)c2c(-c3ccc(C(N)=NO)cc3)ccnc21 [Compound 20, 4-{3-[(Z)-(4,6-dihydroxy-3-oxo-1-benzofuran-2(3H)-ylidene)methyl]-1-methyl-1H-pyrrolo[2,3-b]pyridin-4-yl}-N′-hydroxybenzenecarboximidamide]
27 nM | 106 nM | 2 nM | Cn1cc(/C=C2\Oc3cccc(O)c3C2=O)c2c(-c3ccc(C(=O)N4CCNCC4)cc3)ccnc21 [Compound 136, (2Z)-4-hydroxy-2-({1-methyl-4-[4-(piperazin-1-ylcarbonyl)phenyl]-1H-pyrrolo[2,3-b]pyridin-3-yl}methylene)-1-benzofuran-3(2H)-one]
